The text below walks through data of patent publication US6461863B1, “Modifying insect cell gylcosylation pathways with baculovirus expression vectors” (University of Wyoming, priority 1996, dated 2002).

In one assay the target is T1, Sf9 α1,2-mannosidase (Spodoptera frugiperda, UniProt O18498).
T1 construct: This screening procedure identified a full-length α1,2-mannosidase cDNA clone which contains an ORF; made in house; host or cells: Sf9 cells infected with recombinant baculovirus (pVL1393 transfer plasmid, polyhedrin promoter, BacPAK6 DNA); Triton X-100 cell lysate, not purified
T1 sequence (O18498 1-670): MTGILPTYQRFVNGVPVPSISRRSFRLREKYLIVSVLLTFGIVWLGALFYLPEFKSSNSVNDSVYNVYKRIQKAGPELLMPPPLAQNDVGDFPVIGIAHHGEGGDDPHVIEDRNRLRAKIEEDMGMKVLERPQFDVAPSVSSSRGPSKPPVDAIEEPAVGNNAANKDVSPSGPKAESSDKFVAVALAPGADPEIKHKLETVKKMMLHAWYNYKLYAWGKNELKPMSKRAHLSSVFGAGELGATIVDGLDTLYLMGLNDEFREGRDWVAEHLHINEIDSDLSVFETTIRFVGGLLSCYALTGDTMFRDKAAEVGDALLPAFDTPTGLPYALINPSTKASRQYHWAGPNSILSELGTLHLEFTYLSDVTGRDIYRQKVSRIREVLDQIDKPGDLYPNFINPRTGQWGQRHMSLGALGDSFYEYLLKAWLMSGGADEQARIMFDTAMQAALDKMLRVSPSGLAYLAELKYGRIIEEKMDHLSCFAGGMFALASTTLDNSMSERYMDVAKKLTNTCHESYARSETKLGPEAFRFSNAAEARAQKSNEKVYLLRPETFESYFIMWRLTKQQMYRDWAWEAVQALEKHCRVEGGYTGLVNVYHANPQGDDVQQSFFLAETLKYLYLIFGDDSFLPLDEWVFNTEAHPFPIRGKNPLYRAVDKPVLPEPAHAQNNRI
The assay is described as follows: α1,2-mannosidase activity assay, release of [3H]mannose from [3H]Man9GlcNAc by lysates of recombinant baculovirus-infected Sf9 cells. Format: biochemical. As to conditions: cell lysates at 48 hours postinfection (FIG. 15B); for α-mannosidase activity in recombinant baculovirus-infected cells, inhibition by dMNJ: 500 μM dMNJ. As for the experimental part:
Sf9 cell lysates were used for α1,2-mannosidase activity assays with [3H]Man9GlcNAc as described previously (Herscovics and Jelinek-Kelly, 1987) with some modifications. The cells were seeded into 25 cm tissue culture flasks (Corning Glass Works, Corning, N.Y.) at a density of 3 million cells per flask and infected at a multiplicity of infection of 10 plaque forming units per cell with either a recombinant baculovirus encoding the Sf9 α1,2-mannosidase cDNA under the control of the polyhedrin promoter, or wild type baculovirus as a control. The cells were harvested by centrifugation at selected times after infection, washed with 100 mM Na^+MES (pH 6.0), and lysed using 1 ml per 30,000 cells of the same buffer containing 0.5% Triton X-100 with or without 80 mM EDTA.
[…] of the lysates were used in each reaction of the α1,2-mannosidase activity assays. Cell lysates for negative control reactions were boiled for 3 min prior to being added to the reactions. All reactions were carried out in a total volume of […] containing 75 mM Na^+MES (pH 6.0), 0.0625% Triton X-100, and 6000 cpm of [^3H]MangGlcNAc. In addition, some reactions contained CaCl2, MgCl2, EDTA, or dMNJ. The reactions were incubated at 37° C. for 2.5 hours, boiled for 2 min, and 250 ml of a 5 mM solution of CaCl2, MgCl2, and MnCl2, and 175 ml of a 2.25 mg/ml solution of concanavalin A (Boehringer-Mannheim, Indianapolis, Ind.) in 3.8 M NaCl were added to each reaction. The solutions were vortexed gently and incubated at room temperature for two minutes, then 1 ml of 25% PEG-8000 was added and the solutions were vortexed and incubated for another 5 min at room temperature. The solutions were then centrifuged for 2 min at 10,000×g, 1 ml of the supernatant was added to 4 ml of a scintillation cocktail (Ultima Gold™; Packard Instrument Company, Meriden, Conn.), and radioactivity was measured using a Beckman liquid scintillation counter (Model LS 60001C; Beckman Instruments, Inc., Fullerton, Calif.).

A further assay relates to N-linked glycans on gp64. To be noted: baculovirus-infected lepidopteran cells (Jarvis and Garcia, 1994); cited from earlier work.
The target in the next assay is T2, Sf9 α-mannosidase II (Spodoptera frugiperda, UniProt O18497).
T2 construct: The assembled full-length open reading frame of the Sf9 α-mannosidase II cDNA; made in house; host or cells: Sf9 cells infected with recombinant baculovirus (pVL1392 transfer vector, polyhedrin promoter); Triton X-100 cell extract, not purified
T2 sequence (O18497 1-1130): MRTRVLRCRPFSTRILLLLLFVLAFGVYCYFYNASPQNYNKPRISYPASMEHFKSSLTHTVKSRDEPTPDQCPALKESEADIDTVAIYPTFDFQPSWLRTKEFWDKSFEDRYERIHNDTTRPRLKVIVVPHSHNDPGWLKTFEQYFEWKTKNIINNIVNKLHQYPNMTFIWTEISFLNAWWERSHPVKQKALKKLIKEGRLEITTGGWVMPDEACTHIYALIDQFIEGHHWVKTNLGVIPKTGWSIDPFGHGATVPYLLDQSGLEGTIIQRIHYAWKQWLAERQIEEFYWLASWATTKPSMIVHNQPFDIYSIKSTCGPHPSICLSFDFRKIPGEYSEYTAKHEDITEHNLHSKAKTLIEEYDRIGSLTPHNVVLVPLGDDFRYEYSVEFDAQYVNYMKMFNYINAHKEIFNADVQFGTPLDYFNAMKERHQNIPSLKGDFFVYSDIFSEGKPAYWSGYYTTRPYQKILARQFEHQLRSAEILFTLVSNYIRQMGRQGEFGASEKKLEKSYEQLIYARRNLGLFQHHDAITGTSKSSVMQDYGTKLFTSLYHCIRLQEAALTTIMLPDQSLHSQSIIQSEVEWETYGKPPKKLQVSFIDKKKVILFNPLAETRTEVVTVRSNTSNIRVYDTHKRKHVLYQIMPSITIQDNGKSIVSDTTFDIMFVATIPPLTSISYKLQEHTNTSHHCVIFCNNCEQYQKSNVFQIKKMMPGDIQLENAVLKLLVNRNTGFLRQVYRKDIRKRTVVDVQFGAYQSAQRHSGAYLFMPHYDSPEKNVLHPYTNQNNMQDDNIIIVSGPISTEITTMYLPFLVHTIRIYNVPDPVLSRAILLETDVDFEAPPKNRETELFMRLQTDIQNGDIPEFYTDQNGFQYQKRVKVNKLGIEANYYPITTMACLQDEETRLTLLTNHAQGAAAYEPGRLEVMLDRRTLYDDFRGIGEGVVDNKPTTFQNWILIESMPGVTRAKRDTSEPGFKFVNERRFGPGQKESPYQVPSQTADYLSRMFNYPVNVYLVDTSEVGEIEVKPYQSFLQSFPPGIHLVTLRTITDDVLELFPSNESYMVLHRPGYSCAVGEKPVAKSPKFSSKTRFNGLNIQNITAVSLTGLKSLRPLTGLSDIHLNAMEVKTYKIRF
The assay is described as follows: α-mannosidase activity assay with p-nitrophenyl α-D-mannopyranoside on extracts of recombinant baculovirus-infected Sf9 cells. Format: biochemical. As to conditions: various concentrations of swainsonine; extracts 24, 36, 48 h postinfection (FIG. 7B). As for the experimental part: Sf9 cells were infected with wild-type or recombinant baculoviruses were harvested by centrifugation at various times after infection, and pellets containing 1×10^6 cells were resuspended in 100 μl of assay buffer (0.1 M MES, pH 6.3; 0.5% Triton-X-100). The cell suspensions were assayed for o-mannosidase activity by mixing 25 μl of the cell extracts with 25 μl of 10 mM p-nitrophenyl α-D-mannopyranoside in the presence or absence of various concentrations of swainsonine. The reaction mixtures were incubated in a microtiter plate for 1 hr at 37° C. with gentle agitation, then quenched by the addition of 200 μl of stop solution (133 mM glycine, 67 mM NaCl, 83 mM Na2CO3). Absorbance was measured at 410 nm on a plate reader (Dynatech Model MR 5000), corrected for light scattering at 570 nm, and the corrected absorbance values were converted to nmol p-nitrophenol using a standard curve produced on the same plate reader.

Regarding `O=C(O)CN(CCN(CC(=O)O)CC(=O)O)CC(=O)O` [EDTA], the “α-mannosidase activity in recombinant baculovirus-infected cells, inhibition by EDTA” value at Sf9 α1,2-mannosidase (10 mM EDTA, reversed by calcium, not magnesium) was “strongly inhibited”.
Turning to `OC[C@H]1NC[C@@H](O)[C@@H](O)[C@@H]1O` [dMNJ, 1-deoxymannojirimycin], the “processing of N-linked glycans on gp64” value in the assay on N-linked glycans on gp64 was “block the processing”. The “α-mannosidase activity in recombinant baculovirus-infected cells, inhibition by dMNJ” value on Sf9 α1,2-mannosidase is “strongly inhibited”; at Sf9 α1,2-mannosidase (listed as 1-deoxymannojirimycin), “inhibited”.
As to `O[C@H]1[C@H]2[C@H](O)CCCN2C[C@H]1O` [swainsonine], the “α-mannosidase activity in recombinant baculovirus-infected cell extracts in the presence of swainsonine” value on Sf9 α-mannosidase II was “sensitive”.
